Converted amounts (≈) assume the structure as drawn. “And” between values parts separate entries of the source, which are not always exact repeats. Equal values may be shown once. “Also recorded” adds a separate entry of the source. Where a name gives a salt, the structure may show the parent alone. Read-outs that look alike come from different tables or passages of the source.
Legend:
[1] = tested on: P388 lymphocytic leukemia; settings: 20 mg/kg intraperitoneally for five days; cited from earlier work
[2] = tested on: AMB-resistant Aspergillus fumigatus; assay: MIC and MLC, AMB-resistant Aspergillus fumigatus, broth macrodilution; settings: for MIC: 48 h
Candida albicans [3] = settings: C. albicans; cited from earlier work
[4] = tested on: Aspergillus fumigatus conidia; assay: Kill-curve experiment, Aspergillus fumigatus conidia; type: cell-based
Description: Kill-Curve Experiment: 5 ml conidial suspension each of the AMB-, and ITZ-susceptible (W73355) and the resistant (AB16.4 and ITZ70) isolates prepared in PYG broth (1×10^6 conidia/ml) was incubated at 35° C. in the presence of 5 μm of AMB or 5 μm ITZ or 50 μm Compound 9b. At various time intervals, 0.1 ml aliquots of the conidial suspension were removed, diluted appropriately to obtain 10^2 to 10^4 fold dilution, and 0.1 ml aliquots were spread in duplicate on PYG agar plates. […] Identical treatment of the conidial suspension in the absence of the drug was used as the growth control.

[5] = tested on: ITZ-resistant Aspergillus fumigatus; assay: MIC and MLC, ITZ-resistant Aspergillus fumigatus, broth macrodilution; settings: for MIC: 48 h
Aspergillus fumigatus [6] = assay: Murine pulmonary aspergillosis model; type: in vivo, Aspergillus fumigatus in DBA/2J female mice
Description: In vivo susceptibility studies: DBA/2J female mice (Jackson Laboratories) weighing 20-23 grams (≈6 weeks old) were used. The mice were immunosuppressed by 3 consecutive subcutaneous injections (0.5 ml each) of cortisone acetate (250 mg/kg; Sigma Chemical Company) in sterile distilled water containing 0.1% Tween 80. The immunosuppressed mice were anesthetized by exposing to ether in a desiccator for 45±5 seconds and infected with 20 μl inoculum containing 1×10^6 conidia delivered to the nares of the animals as a single droplet from a micropipet. Compound 9b and AMB were dissolved in dimethyl sulfoxide (DMSO) and administered 24 hr post infection by intraperitoneal injection in 0.2 ml PBS per dose. […] The efficacy of chemotherapy was assessed by determining percent survival and the fungal load (CFU/lungs) of infected animals as determined by semiquantitative organ culture.

Aspergillus fumigatus [7] = assay: MIC and MLC, Aspergillus fumigatus, broth macrodilution
P388 cells = assay: Cytotoxicity, murine P388 leukemic cells (P388 D1); settings: read-out: P388 cells IC50
[8] = tested on: pathogenic yeasts and filamentous fungi; assay: Screening of conjugated styryl ketones against pathogenic yeasts and filamentous fungi; type: cell-based
Source text: Approximately 90 compounds belonging to the conjugated styryl ketone class were screened for their activity against pathogenic yeasts and filamentous fungi. […] Since none of the previously examined compounds provided encouraging results for further studies, a series of α,β-unsaturated ketones with two sites for thiol alkylation reaction were synthesized.

human tumors [9] = assay: Cytotoxicity, human tumor cell line panel (approximately 55 lines)
Molt 4/C8 cells = assay: Cytotoxicity, Molt 4/C8 human T-lymphocytes; settings: for TIL1210 (Molt 4/C8 cells): IC50 T-lymphocytes (Molt 4/C8)/IC50 L1210; for TIP388 (Molt 4/C8 cells): IC50 T-lymphocytes (Molt 4/C8)/IC50 P388; for TIht (Molt 4/C8 cells): IC50 T-lymphocytes (Molt 4/C8)/IC50 human tumors
Candida albicans [10] = assay: Vaginal candidiasis in ovariectomized rats; type: in vivo, Candida albicans in ovariectomized rats; settings: in Mineral Oil
Description: As well, ovariectomized rats predisposed for Candida albicans infection by estrogen treatment were infected vaginally with 1×10^7 CFU per ml to produce vaginal candidiasis. The infected animals were treated with Compound 9b once daily (100 mg/kg=2 mg/[…]) for 5 days. Vaginal fluid was collected from each animal 72 hr post-treatment and CFUs per rat were determined by plating the […] fluid on PYG agar containing 200 ug/ml gentamicin.

L1210 cells = assay: Cytotoxicity, murine L1210 leukemic cells; type: cell-based; settings: Mus musculus, mean
CEM cells = assay: Cytotoxicity, CEM human T-lymphocytes; settings: for IC50: Homo sapiens, CCRF-CEM; for TIL1210 (CEM cells): IC50 T-lymphocytes (CEM)/IC50 L1210; for TIP388 (CEM cells): IC50 T-lymphocytes (CEM)/IC50 P388; for TIht (CEM cells): IC50 T-lymphocytes (CEM)/IC50 human tumors
human tumors [11] = tested on: human tumors
COLO 205 = settings: in vivo; cited from earlier work
LOX IMVI = settings: in vivo; cited from earlier work
NCI-H522 = settings: in vivo; cited from earlier work
SW-620 = settings: in vivo; cited from earlier work
CAKI-1 = settings: in vivo; cited from earlier work
human Jurkat T cells [12] = assay: Growth inhibition of Jurkat T cells, trypan blue exclusion test; type: cell-based; settings: 48 h, read-out: growth of Jurkat T cells inhibited by 50% (IC50)
Description: All cell cultures used were maintained in RPMI 1640 medium, pH 7.4 supplanted with 10% fetal bovine serum and 50 μg/ml of gentamycin in 25 ml culture flasks at 37° C. in a humidified gas mixture of 5% carbon dioxide balanced with air and were passaged three times a week.
Cell viability was determined by the trypan blue exclusion test according to a literature procedure (Duke and Cohen, 1992). […] A flask containing ~10^6 cells/ml and 8 or […] of DMSO was used as the control. […] After 48 hours, cells were counted using a haemocytometer. The percentage of growth inhibition was calculated as follows: (C-T/C)×100 where C is the mean cell number in the control and T is the mean cell number in each treatment. […] All experiments were performed in triplicate.

human Jurkat T cells [13] = assay: DNA fragmentation by agarose gel electrophoresis; type: cell-based; settings: Compound 9d 6 and 10 μM; melphalan 10 μM
human Jurkat T cells [14] = assay: Apoptosis, fluorescence microscopy with acridine orange and ethidium bromide
[15] = tested on: proton translocating ATPase of Saccharomyces cerevisiae; settings: cited from earlier work
[16] = Aspergillus fumigatus, 48 h, read-out: MIC Mean ± SD
[17] = Aspergillus fumigatus, 48 h, read-out: MIC Range
[18] = read-out: human tumors IC50, mean graph midpoint, approximately 55 cell lines, hydrobromide salts used for 4a, 11a-e

For O=c1[nH]cc(F)c(=O)[nH]1 [5-fluorouracil], the “ILS, murine P388 (reference drug)” value [1] is listed as > 35.
In the case of C[C@@H]1[C@H](O)[C@@H](C)/C=C/C=C/C=C/C=C/C=C/C=C/C=C/[C@H](O[C@@H]2O[C@H](C)[C@@H](O)[C@H](N)[C@@H]2O)C[C@@H]2O[C@](O)(C[C@@H](O)C[C@@H](O)[C@H](O)CC[C@@H](O)C[C@@H](O)CC(=O)O[C@H]1C)C[C@H](O)[C@H]2C(=O)O [Amphotericin B], the MIC ([2]; read-out: MIC Mean ± SD) is listed as 6.64 ± 3.47 µM (≈ 6.14 µg/mL), the MIC ([2]; read-out: MIC Range) is listed as 4.42 to 17.7 µM (≈ 4.08 to 16.4 µg/mL) and the “mean MIC” value (Candida albicans [3]) is listed as ~0.6 μm. The killing at 5 µM ([4]; Aspergillus fumigatus, 5 μm AMB or 5 μm ITZ, within 24 hr) was ≥ 99%, the MIC ([5]; read-out: MIC Mean ± SD) was 0.7 ± 0.39 µM (≈ 0.647 µg/mL) and the MIC ([5]; read-out: MIC Range) was 0.27 to 1.11 µM (≈ 0.25 to 1.03 µg/mL). The “reduction of CFU/lung” value (Aspergillus fumigatus [6]; 2 mg/kg/day) was “≈ 66%”, the MIC (Aspergillus fumigatus [7]; [16]) was 1.32 ± 0.63 µM (≈ 1.22 µg/mL) and the MIC (Aspergillus fumigatus [7]; [17]) was 0.55 to 2.22 µM (≈ 0.508 to 2.05 µg/mL).
In the case of CCN1CCC(O)(/C=C/c2ccc(Cl)cc2)C(C(=O)/C=C/c2ccc(Cl)cc2)C1 (stereo not drawn) [Compound 9b, (3-[3-(4-chlorophenyl)-2-propenoyl]-4-[2-(4-chlorophenyl)vinylene]-1-ethyl-4-piperidinol hydrochloride], the IC50 (P388 cells) is reported as 1.1 µM, the “antifungal activity (in words)” value [8] is reported as “activity against both pathogenic yeasts and filamentous fungi at low concentrations” and the MIC ([2]; read-out: MIC Mean ± SD) is reported as 9.85 ± 3.53 µM. The MIC ([2]; read-out: MIC Range) was 6.25 to 12.5 µM, the MFC ([2]; read-out: MLC Range) was 12 to 25 µM and the killing at 50 µM ([4]; Aspergillus fumigatus, 50 μm, within 24 hr) was ≥ 90%. The “fungicidal activity against AMB-resistant and ITZ-resistant isolates” value ([4]; data not shown) was “as susceptible to the fungicidal activity of Compound 9b as the susceptible one”, the “IC50 relative to mean MIC for Aspergillus fumigatus” value (human tumors [9]; mammalian cells (human tumor; b359 also Molt 4/C8 and CEM)) was 2-3 fold and the IC50 (human tumors [9]; [18]) was 25.7 µM. The IC50 (human tumors [9]; read-out: mean IC50 value for 55 different human tumour cells) was 25.7 µM, the “TIL1210 (Molt 4/C8 cells)” value (Molt 4/C8 cells) was 4.46 and the “TIP388 (Molt 4/C8 cells)” value (Molt 4/C8 cells) was 28.24. For the same compound, the “TIht (Molt 4/C8 cells)” value (Molt 4/C8 cells) was 1.21, the IC50 (Molt 4/C8 cells; read-out: IC50 Molt 4/C8) was 31.1 µM and the IC50 (Molt 4/C8 cells; read-out: Molt 4/C8 cells IC50) was 31.1 µM. The “% CFU reduction” value (Candida albicans [10]) was 97.4%, the “Mean Value CFU/rat” value (Candida albicans [10]; mean of 6 animals, S.D. 1.7 × 10^4) was 1.2 × 10^4 CFU/rat and the CFU/rat (Candida albicans [10]; individual animals, 100 mg/kg once daily for 5 days, 72 hr post-treatment, hydrochloride, 100 mg/kg) was 4.6 × 10^4 CFU/rat and 4.2 × 10^3 CFU/rat and 8.3 × 10^2 CFU/rat and 1.7 × 10^4 CFU/rat and 3.5 × 10^2 CFU/rat and 6.5 × 10^3 CFU/rat. For the same compound, the IC50 (L1210 cells) was 6.96 µM, the MIC ([5]; read-out: MIC Mean ± SD) was 10.9 ± 6.35 µM and the MIC ([5]; read-out: MIC Range) was 3.12 to 25 µM. For the same compound, the MFC ([5]; read-out: MLC Range) was 6.25 to 25 µM, the “reduction in CFU/lung” value (Aspergillus fumigatus [6]; 6.25 mg/kg/day) was 50% and the mortality rate (Aspergillus fumigatus [6]; 6.5 mg/kg/day for five days, mice) was “did not show any greater mortality rate than the placebo or the AMB-treated groups”. The “fungal load of infected animals (in words)” value (Aspergillus fumigatus [6]; mouse, in vivo, hydrochloride) was “reduced significantly; also recorded: not as efficient as AMB for the reduction of fungal load”, the “survival of infected animals” value (Aspergillus fumigatus [6]; vs DMSO placebo) was “did not improve significantly over the placebo group” and the MIC (Aspergillus fumigatus [7]; [16]) was 11.9 ± 5.32 µM. For the same compound, the MIC (Aspergillus fumigatus [7]; [17]) was 6.25 to 25 µM, the MFC (Aspergillus fumigatus [7]; Aspergillus fumigatus, read-out: MLC Range) was 12.5 to 25 µM and the MIC (Aspergillus fumigatus [7]; Aspergillus fumigatus, read-out: mean MIC value) was 11.9 µM. For the same compound, the “effectiveness compared with ITZ and AMB” value (Aspergillus fumigatus [7]; susceptible isolates) was “less effective than ITZ and AMB in susceptible isolates”, the “MLC values relative to MIC values” (Aspergillus fumigatus [7]; various Aspergillus fumigatus isolates) was “either the same as or twofold higher than the MIC values” and the IC50 (CEM cells; read-out: CEM cells IC50) was 20.1 µM. The IC50 (CEM cells; read-out: IC50 CEM) was 20.1 µM, the “TIL1210 (CEM cells)” value (CEM cells) was 2.89 and the “TIP388 (CEM cells)” value (CEM cells) was 18.31. For the same compound, the “TIht (CEM cells)” value (CEM cells) was 0.78.
With CC[N+]1(C)CCC(O)(/C=C/c2ccc(Cl)c(Cl)c2)C(C(=O)/C=C/c2ccc(Cl)c(Cl)c2)C1 (stereo not drawn) [Compound 10c] the IC50 (P388 cells) was 0.64 µM, the IC50 (human tumors [9]; [18]) was 2.19 µM and the “TIL1210 (Molt 4/C8 cells)” value (Molt 4/C8 cells) was 1.12. For the same compound, the “TIP388 (Molt 4/C8 cells)” value (Molt 4/C8 cells) was 37.56, the “TIht (Molt 4/C8 cells)” value (Molt 4/C8 cells) was 10.98 and the IC50 (Molt 4/C8 cells; read-out: Molt 4/C8 cells IC50) was 24 µM. The IC50 (L1210 cells) was 21.4 µM, the “activity relative to compound 12c, human tumors” value (human tumors [11]) was 4.36 times and the IC50 (CEM cells; read-out: CEM cells IC50) was 16.5 µM. For the same compound, the “TIL1210 (CEM cells)” value (CEM cells) was 0.77, the “TIP388 (CEM cells)” value (CEM cells) was 25.78 and the “TIht (CEM cells)” value (CEM cells) was 7.53.
For O=P1(N(CCCl)CCCl)NCCCO1 (stereo not drawn) [cyclophosphamide], the “activity towards COLO 205 xenograft” value (COLO 205) is listed as “inactive”, the “reduction of growth of LOX IMVI tumor” value (LOX IMVI) is listed as 100-150% and the “activity towards NCI-H522 xenograft” value (NCI-H522) is listed as “inactive”. For the same compound, the “activity towards SW-620 xenograft” value (SW-620) was “inactive” and the “reduction of growth of CAKI-1 tumor” value (CAKI-1) was 60-100%.
For OC(Cn1cncn1)(Cn1cncn1)c1ccc(F)cc1F [fluconazole], the “mean MIC” value (Candida albicans [3]) is listed as “approximately 0.8 μm”.
With N[C@@H](Cc1ccc(N(CCCl)CCCl)cc1)C(=O)O [melphalan, reference compound] the IC50 (human Jurkat T cells [12]) was 1.16 µM, the “DNA ladder / DNA fragmentation” value (human Jurkat T cells [13]) was “A faint DNA ladder could be seen” and the IC50 (human tumors [9]; [18]) was 26.3 µM. The “time after which apoptotic effects were detectable” value (human Jurkat T cells [14]) was 3 h, the “percentage of apoptotic cells” value (human Jurkat T cells [14]; 10 μM, 17 hours, control 4.4%) was 24% and the “death of treated cells” value (human Jurkat T cells [14]; 48 hours) was “all the treated cells had died”. The “TIL1210 (CEM cells)” value (CEM cells) was 1.16, the “TIP388 (CEM cells)” value (CEM cells) was 11.23 and the “TIht (CEM cells)” value (CEM cells) was 0.09.
For COc1ccc2[nH]c([S+]([O-])Cc3ncc(C)c(OC)c3C)nc2c1 (stereo not drawn) [omeprazole], the “inhibition of proton translocating ATPase” value [15] is listed as “inhibited the proton translocating ATPase of Saccharomyces cerevisiae”.

— patent publication US6017933A, “Mannich bases of conjugated styryl ketones” (University of Saskatchewan Technologies Inc., priority 1999, dated 2000)
